Data reported in patent US7608408B2, “Methods of identifying compounds that inhibit Notch cleavage” (Bristol-Myers Squibb Company, priority 2005, dated 2009).
pEC50, pIC50: −log10 of the molar value.

How the values were obtained:
Assay type in all cases: cell-based
HT29-L23 cells [1] = experiment: Real time PCR of Notch pathway genes in HT29-L23 cells; conditions: relative to DMSO, normalized to PPIA
Method: HT29-L23 cells were treated with Compound Z or DMSO as described in Example 1. mRNA were isolated at indicated time points (FIGS. 5A-E) and analyzed by real time PCR with indicated Taqman probes (Applied Biosystems, Foster City, Calif.). Results were normalized relative to the amount of cyclophilin A (PPIA) mRNA for the same sample and were plotted as fold changes relative to DMSO treated sample at time zero. Statistical significance was determined by one-way ANOVA followed by Bonferroni's multiple comparison test performed within groups.

HT29 cells = experiment: Mucin immunostaining in HT29 cells by microscopy; conditions: 1 uM, 72 hours, serum-free medium
Method: (§1) HT29 cells were seeded in 4 or 8 well slide chambers. 24 hours later, cells were treated for 72 hours in serum-free medium with either Compound Z (1 uM in DMSO) or DMSO at a final DMSO concentration of 0.1%. Treated cells were washed twice with PBS, fixed with 4% paraformaldehyde (10 min, RT) followed by methanol (2 min, −20° C.). Fixed cells were washed twice with PBS, incubated with PBS+0.5% TritonX100 for 10 min., washed twice with PBS and blocked for 2 hr in PBS containing 0.1% TritonX100, 2% BSA and 5% dry milk. Cells were stained with primary antibody against mucin-2, mucin-5AC, mucin-1, mucin-3, or mucin-6 by adding primary antibody in blocking buffer and incubating 1 hr, RT. Cells were washed 3× with PBS+0.1% TritonX100 and stained with an appropriate species-specific PE-, TRITC- or FITC-labeled secondary antibody for 30 min., RT. Cells were visualized through microscopy. γ-secretase inhibitor Compound Z induced mucin-2 and mucin-5AC (FIGS. 1A and 1B) but not mucin-1, mucin-3, or mucin-6 in HT29 cells.

[2] = system: Notch signaling (Notch-1 ΔE / CBF1 luciferase reporter); experiment: Inhibition of Notch signaling in HeLa cells transiently transfected with Notch-1 ΔE and CBF1 luciferase reporter; conditions: Homo sapiens
Method: (§2) HeLa cells were transiently transfected with Notch-1 ΔE and the CBF1 luciferase reporter, and inhibition of Notch signaling by compounds known to inhibit γ-secretase was determined. Induction of mucin-2 in HT29-L23 cells was determined as in Example 1 for the same set of γ-secretase inhibitory compounds.

APP = APP cleavage assay (Aβ peptides); conditions: n=166
Text: (§3) Any method for determining the ability of a compound to inhibit cleavage of γ-secretase substrates known in the art may be employed. For example, methods for assessing the ability of a compound to cleave APP are known. The ability of a compound to cleave APP may be assessed, for example, by measuring or detecting Aβ peptides (e.g., Aβ1-40, Aβ1-42; see, e.g., U.S. Published Application No. 2003/0215896).

Notch = Notch cleavage assay; conditions: n=252
Text: as §3

HT29-L23 cells [3] = experiment: Mucin-2 induction in HT29-L23 cells transfected with NICD, AICD or control plasmid (High Content Screening); conditions: 1 uM
Method: HT29-L23 cells were transiently transfected with control plasmid (pcDNA-DsRed) or Myc epitope tagged Notch intracellular domain (NICD) (activated Notch-1) or APP intracellular domain (AICD) (activated APP). Cells were treated with Compound Z (1 uM in DMSO) or vehicle, and protein expression was analyzed by High Content Screening as described in Example 1. After staining with Mucin-2 and Myc antibodies, the transfected subpopulation of cells (Myc positive) were used for final analysis. Cells without DsRed expression were designated as control. Statistical significance was determined by one-way ANOVA followed by Bonferroni's multiple comparison test performed within and between groups.

HT29-L23 cells [4] = experiment: Mucin-2 induction in HT29-L23 cells; conditions: read-out: HT29-L23 IC50 (mucin-2 induction)
Method: as §1, with “Cells were washed 3× with PBS+0.1% TritonX100 and stained with an appropriate species-specific PE-, TRITC- or FITC-labeled secondary antibody for 30 min., RT. Cells were visualized through microscopy. γ-secretase inhibitor Compound Z induced mucin-2 and mucin-5AC (FIGS. 1A and 1B) but not mucin-1, mucin-3, or mucin-6 in HT29 cells.” left out
HT29 subclones were generated through limiting dilution. […] Mucin-2 positive cells were measured by FACS analysis (FIG. 2). […] Images were acquired on an ArrayScan™ system and analyzed for mucin-2 expression with the Target activation application (FIGS. 3A and 3B).
as §2

- pIC50 [2]: 8.34
- pEC50 (APP): 9.09
- pEC50 (Notch): 8.68
- pIC50 (HT29-L23 cells [4]): 7.92
SMILES: C[C@H](NC(=O)[C@@H](O)c1cc(F)cc(F)c1)C(=O)N[C@@H]1C(=O)N(C)N=Cc2ccccc21 [Compound 1]
- Delta-1 mRNA (HT29-L23 cells [1]): induced
- HES-1 mRNA (HT29-L23 cells [1]): downregulated
- Jagged-2 mRNA (HT29-L23 cells [1]): induced
- Math-1 mRNA (HT29-L23 cells [1]): induced
- Mucin-2 mRNA (HT29-L23 cells [1]): induced
- mucin-1 induction (HT29 cells): not
- mucin-2 induction (HT29 cells): induced
- mucin-3 induction (HT29 cells): not
- mucin-5AC induction (HT29 cells): induced
- mucin-6 induction (HT29 cells): not
- number of cells producing mucin-2 (HT29-L23 cells [3]; AICD (activated APP) transfected group): increased
- number of cells producing mucin-2 (HT29-L23 cells [3]; Control group): increased
